Counter-ions that a name gives are not always drawn.
How the values were obtained:
[1] = biological target: T1, FXR (Homo sapiens, UniProt Q96RI1); test: FXR Transactivation Assay (pBIND-FXR / pGL4.35 luciferase reporter in HEK293T); type: cell-based; settings: HEK293T cells
T1 construct: expressed in transfected cells; host or cells: HEK293T
T1 sequence (Q96RI1 1-486): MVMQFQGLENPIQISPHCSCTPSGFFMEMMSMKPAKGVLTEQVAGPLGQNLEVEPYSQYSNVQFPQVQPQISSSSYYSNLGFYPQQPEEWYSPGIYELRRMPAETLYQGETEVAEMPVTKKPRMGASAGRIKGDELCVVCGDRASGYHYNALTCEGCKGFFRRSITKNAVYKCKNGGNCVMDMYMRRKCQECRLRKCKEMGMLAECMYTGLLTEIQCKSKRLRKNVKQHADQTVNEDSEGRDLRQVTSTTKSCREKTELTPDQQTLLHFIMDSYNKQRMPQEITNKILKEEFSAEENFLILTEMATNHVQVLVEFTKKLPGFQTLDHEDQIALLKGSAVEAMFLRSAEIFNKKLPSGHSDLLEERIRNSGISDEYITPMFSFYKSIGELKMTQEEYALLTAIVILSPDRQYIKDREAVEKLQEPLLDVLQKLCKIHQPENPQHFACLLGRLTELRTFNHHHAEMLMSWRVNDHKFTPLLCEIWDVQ
Description: FXR Transactivation Assay
pGL4.35 [luc2P/9XGAL4 UAS/Hygro]
DMEM medium, high glucose
Fetal Bovine Serum (FBS, heat-inactivated)
Penicillin-Streptomycin (10000 U/ml, 100 ml)
DMEM, High Glucose, HEPES, no Phenol Red
Opti-MEM® I Reduced Serum Medium
Steady-Glo™ Luciferase Assay System
TransIT-293 Transfection Reagent
GW4064 as a positive control
(§1) • 1. Hek293T cells were plated at 1.1*10^6/ml into a 100 mm dish. • 2. Cells were transfected with 8.4 μg of pBind-FXR, 1.26 μg of the reporter vector pGL4.35 (Promega). Cells were incubated at 37° C. under 5% CO2 atmosphere. • 3. All of compounds were 3-fold serial diluted from 10 mM stock for 10 doses in DMSO. • 4. Transfer compound dilutions into 384 well assay plates using liquid workstation. • 5. Seed 25 ul HEK293T cells into 384 well assay plate (prepared step 4) at 0.6*10^5/ml. Cells were incubated at 37° C. under 5% CO2 atmosphere overnight. • 6. Add 25 ul steady-Glo™ Luciferase Assay Reagent into each well of 384-well assay plate. • 7. Record the luminescence value on Envision 2104 plate reader. • 8. Calculate EC50 by fitting % Activity values and log of compound concentrations to nonlinear regression (dose response−variable slope) with Graphpad 5.0. FXR Coactivator Assay Reagents: LanthaScreen™ TR-FRET Farnesoid X Receptor Coactivator Assay GW4064 as a positive control Process: • 1. All of compounds were 3-fold serial diluted from 10 mM stock for 10 doses in DMSO. • 2. Dilute each 100× agonist serial dilution to 2× using Complete Coregulator buffer G. • 3. Transfer 10 μl of each of the 2× agonist serial dilutions to 384 well assay plates. • 4. […] Incubate at room temperature protected from light. • 7. Read the plate at wavelengths of 520 nm and 495 nm on Envision 2104 plate reader. • 8. Calculate the TR-FRET ratio by dividing the emission signal at 520 nm by the emission signal at 495 nm. • 9. Calculate EC50 by fitting % Activity values and log of compound concentrations to nonlinear regression (dose response−variable slope) with Graphpad 5.0.

[2] = biological target: T2, FXR-LBD (Homo sapiens, UniProt Q96RI1); test: FXR Coactivator Assay (LanthaScreen TR-FRET); type: biochemical
T2 construct: Add 5 μl of 4×FXR-LBD to 384 well assay plates; purchased
T2 sequence (Q96RI1 262-486 limits assumed): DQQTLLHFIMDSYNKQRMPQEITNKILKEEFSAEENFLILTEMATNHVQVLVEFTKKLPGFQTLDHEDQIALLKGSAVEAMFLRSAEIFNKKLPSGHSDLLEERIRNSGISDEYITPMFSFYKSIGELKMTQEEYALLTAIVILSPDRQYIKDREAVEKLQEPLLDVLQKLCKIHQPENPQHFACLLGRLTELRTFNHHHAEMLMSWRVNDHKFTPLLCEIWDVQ
Description: as §1

EC50 [1] [nM]	EC50 [2] [nM]	SMILES
10 to 100	–	N#CC1(c2ccc(OCc3c(-c4c(Cl)cccc4Cl)noc3C3CC3)cc2Cl)CC1c1cccc(C(=O)O)c1 (single isomer, unassigned) [VII-03-2, 3-[2-(2-Chloro-4-[[5-cyclopropyl-3-(2,6-dichlorophenyl)-1,2-oxazol-4-yl]methoxy]phenyl)-2-cyanocyclopropyl] benzoic Acid]
101 to 400	–	CC1(c2nc3ccc(C(=O)O)cc3s2)CC1c1ccc(OCc2c(-c3c(Cl)cccc3Cl)noc2C2CC2)cc1Cl (stereo not shown) [IV-17]
–	401 to 5000	Cc1cc(C(=O)O)cc2sc(C3(C)CC3c3ccc(OCc4c(-c5c(Cl)cccc5Cl)noc4C4CC4)cc3Cl)nc12 (stereo not shown) [IV-18]
–	101 to 400	CC1(c2ncc(C(=O)O)s2)CC1c1ccc(OCc2c(-c3c(Cl)cccc3Cl)noc2C2CC2)cc1Cl (stereo not shown) [IV-19, 2-(2-(2-Chloro-4-((5-cyclopropyl-3-(2,6-dichlorophenyl)isoxazol-4-yl)methoxy)phenyl)-1-methylcyclopropyl) thiazole-5-carboxylic Acid]
10 to 100	–	CC1(c2ccc(OCc3c(-c4c(Cl)cccc4Cl)noc3C3CC3)cc2Cl)CC1c1cccc(C(=O)O)c1 (stereo not shown) [VI-03]
10 to 100	–	CC1(c2ccc(OCc3c(-c4c(Cl)cccc4Cl)noc3C3CC3)cc2Cl)CC1c1ccnc(C(=O)O)c1 (stereo not shown) [VI-06]
101 to 400	–	CC1(c2ccc(OCc3c(-c4c(Cl)cccc4Cl)noc3C3CC3)cc2Cl)CC1c1cc(C(=O)O)ccn1 (stereo not shown) [VI-07]
10 to 100	–	CC(C)c1onc(-c2c(Cl)cccc2Cl)c1COc1ccc(C2(C)CC2c2nc3c(F)cc(C(=O)O)cc3s2)c(Cl)c1 (stereo not shown) [VI-08]
10 to 100	–	CC1(c2ccc(OCc3c(-c4c(Cl)cccc4Cl)noc3C3CC3)cc2Cl)CC1c1nc2c(F)cc(C(=O)O)cc2s1 (stereo not shown) [VI-09]
–	101 to 400	COc1cc(C(=O)O)cc2sc(C3CC3(C)c3ccc(OCc4c(-c5c(Cl)cccc5Cl)noc4C(C)C)cc3Cl)nc12 (stereo not shown) [VI-10]
10 to 100	–	CC(C)c1onc(-c2c(Cl)cccc2Cl)c1COc1ccc(C2(C)CC2c2nc3ccc(C(=O)O)cc3s2)c(Cl)c1 (stereo not shown) [VI-11]
10 to 100	–	CC(C)c1onc(-c2c(Cl)cccc2Cl)c1COc1ccc(C2(C)CC2c2ncc(C(=O)O)s2)c(Cl)c1 (stereo not shown) [VI-12, 2-(2-(2-Chloro-4-((3-(2,6-dichlorophenyl)-5-isopropylisoxazol-4-yl)methoxy)phenyl)-2-methylcyclopropyl) thiazole-5-carboxylic Acid]
10 to 100	–	CC1(c2ccc(OCc3c(-c4c(Cl)cccc4Cl)noc3C3CC3)cc2Cl)CC1c1ncc(C(=O)O)s1 (stereo not shown) [VI-13]
401 to 5000	–	N#CC1(c2ccc(OCc3c(-c4c(Cl)cccc4Cl)noc3C3CC3)cc2Cl)CC1c1cncc(C(=O)O)c1 (stereo not shown) [VII-05, 5-(2-(4-((3-(2,6-Dichlorophenyl)-5-cyclopropylisoxazol-4-yl)methoxy)-2-chlorophenyl)-2-cyanocyclopropyl) pyridine-3-carboxylic Acid]
101 to 400	–	COc1cc(C(=O)O)cc2sc(C3CC3(C#N)c3ccc(OCc4c(-c5c(Cl)cccc5Cl)noc4C4CC4)cc3Cl)nc12 (stereo not shown) [VII-06, 2-[2-(2-Chloro-4-[[5-cyclopropyl-3-(2,6-dichlorophenyl)-1,2-oxazol-4-yl]methoxy]phenyl)-2-cyanocyclopropyl]-4-methoxy-1,3-benzothiazole-6-carboxylic Acid]
401 to 5000	–	CC(C)n1nc(C(=O)O)cc1C1CC1(C#N)c1ccc(OCc2c(-c3c(Cl)cccc3Cl)noc2C2CC2)cc1Cl (stereo not shown) [VII-07]
10 to 100	–	Cc1ccc(C(=O)O)cc1C1CC1(C#N)c1ccc(OCc2c(-c3c(Cl)cccc3Cl)noc2C2CC2)cc1Cl (stereo not shown) [VII-08]
101 to 400	–	COc1ccc(C(=O)O)cc1C1CC1(C#N)c1ccc(OCc2c(-c3c(Cl)cccc3Cl)noc2C2CC2)cc1Cl (stereo not shown) [VII-09]
10 to 100	–	Cc1cc(C(=O)O)cc(C2CC2(C#N)c2ccc(OCc3c(-c4c(Cl)cccc4Cl)noc3C3CC3)cc2Cl)c1 (stereo not shown) [VII-10]

More lines, now with the values behind:

SMILES	EC50 [1] [nM]	EC50 [2] [nM]
CC1(c2cncc(C(=O)O)c2)CC1c1ccc(OCc2c(-c3c(Cl)cccc3Cl)noc2C2CC2)cc1Cl (single isomer, unassigned) [IV-06-1, 5-[2-(2-Chloro-4-[[5-cyclopropyl-3-(2,6-dichlorophenyl)-1,2-oxazol-4-yl]methoxy]phenyl)-1-methylcyclopropyl] pyridine-3-carboxylic Acid]	101 to 400	–
CC1(c2cncc(C(=O)O)c2)CC1c1ccc(OCc2c(-c3c(Cl)cccc3Cl)noc2C2CC2)cc1Cl (single isomer, unassigned) [IV-06-2, 5-[2-(2-Chloro-4-[[5-cyclopropyl-3-(2,6-dichlorophenyl)-1,2-oxazol-4-yl]methoxy]phenyl)-1-methylcyclopropyl] pyridine-3-carboxylic Acid]	10 to 100	–
CC(C)c1onc(-c2c(Cl)cccc2Cl)c1COc1ccc(C2CC2(CN)c2ccc(C(=O)O)cc2)c(Cl)c1 (stereo not shown) [Compound V2-01, 4-[1-(Aminomethyl)-2-(2-chloro-4-[[3-(2,6-dichlorophenyl)-5-(propan-2-yl)-1,2-oxazol-4-yl]methoxy]phenyl)cyclopropyl] benzoic Acid Hydrochloride]	–	401 to 5000
N#CC1(c2cccc(C(=O)O)c2)CC1c1ccc(OCc2c(-c3c(Cl)cccc3Cl)noc2C2CC2)cc1Cl (stereo not shown) [Compound V-03]	401 to 5000	–
N#CC1(c2cncc(C(=O)O)c2)CC1c1ccc(OCc2c(-c3c(Cl)cccc3Cl)noc2C2CC2)cc1Cl (stereo not shown) [Compound V-04, 5-[2-(2-Chloro-4-[[5-cyclopropyl-3-(2,6-dichlorophenyl)-1,2-oxazol-4-yl]methoxy]phenyl)-1-cyanocyclopropyl] pyridine-3-carboxylic Acid]	401 to 5000	–
CC1(c2cccc(C(=O)O)c2)CC1c1ccc(OCc2c(-c3c(Cl)cncc3Cl)noc2C2CC2)cc1Cl (stereo not shown) [IV-04]	101 to 400	–
CC1(c2ccnc(C(=O)O)c2)CC1c1ccc(OCc2c(-c3c(Cl)cccc3Cl)noc2C2CC2)cc1Cl (stereo not shown) [IV-07]	401 to 5000	–
CC1(c2cncc(C(=O)O)c2)CC1c1ccc(OCc2c(-c3c(Cl)cncc3Cl)noc2C2CC2)cc1Cl (stereo not shown) [IV-08]	101 to 400	–
CC1(c2cncc(C(=O)O)c2)CC1c1ccc(OCc2c(-c3ccccc3OC(F)(F)F)noc2C2CC2)cc1Cl (stereo not shown) [IV-09, 5-[2-[2-Chloro-4-([5-cyclopropyl-3-[2-(trifluoromethoxy)phenyl]-1,2-oxazol-4-yl]methoxy)phenyl]-1-methylcyclopropyl] pyridine-3-carboxylic Acid]	101 to 400	–
CC1(c2cncc(C(=O)O)c2)CC1c1ccc(OCc2c(-c3ccccc3OC(F)F)noc2C2CC2)cc1Cl (stereo not shown) [IV-10]	101 to 400	–
CC(C)c1cnn(-c2c(Cl)cccc2Cl)c1COc1ccc(C2CC2(C)c2cncc(C(=O)O)c2)c(Cl)c1 (stereo not shown) [IV-11]	10 to 100	–
CC1(c2cncc(C(=O)NCC(=O)O)c2)CC1c1ccc(OCc2c(-c3c(Cl)cccc3Cl)noc2C2CC2)cc1Cl (stereo not shown) [IV-12, 2-([5-[2-(2-Chloro-4-[[5-cyclopropyl-3-(2,6-dichlorophenyl)-1,2-oxazol-4-yl]methoxy]phenyl)-1-methylcyclopropyl]pyridin-3-yl] formamido) Acetic Acid]	401 to 5000	–
CC1(c2cncc(C(=O)NCCS(=O)(=O)O)c2)CC1c1ccc(OCc2c(-c3c(Cl)cccc3Cl)noc2C2CC2)cc1Cl (stereo not shown) [IV-13]	–	10 to 100
CC(C)c1onc(-c2c(Cl)cccc2Cl)c1COc1ccc(C2CC2(C)c2ccc3c(c2)c(C(=O)O)nn3C(C)C)c(Cl)c1 (stereo not shown) [IV-14]	401 to 5000	–
COc1cc(C(=O)O)cc2sc(C3(C)CC3c3ccc(OCc4c(-c5c(Cl)cccc5Cl)noc4C(C)C)cc3Cl)nc12 (stereo not shown) [IV-16]	101 to 400	–

From US10899723B2, “Heterocyclic containing cyclopropyl FXR modulators” (Hepagene Therapeutics (HK) Limited, priority 2016, dated 2021)
